Like-named read-outs stand apart in the source and are kept apart here.
How the values were obtained:
[1] = hypertensives; 5-7 mM (310-434 mg/L/day) nitrate; cited from earlier work

Compound: O=[N+]([O-])[O-].[K+] [KNO3, potassium nitrate]
- salivary nitrite (ingestion): elevated
- Salivary NO2 (subject 1, 500 mg KNO3 (5 mg/Kg) at 8:00, time 1:00PM): 120 µM
- Salivary NO2 (subject 1, 500 mg KNO3 (5 mg/Kg) at 8:00, time 2:00): 110 µM
- Salivary NO2 (subject 1, 500 mg KNO3 (5 mg/Kg) at 8:00, time 2:45): <20 µM
- Salivary NO2 (subject 1, 500 mg KNO3 (5 mg/Kg) at 8:00, time 9:00): 400 µM
- Salivary NO2 (subject 1, 500 mg KNO3 (5 mg/Kg) at 8:00, time 11:00): 220 µM
- Salivary NO2 (subject 1, 500 mg KNO3 (5 mg/Kg) at 8:00, time 11:40): 110 µM
- Salivary NO2 (subject 2, 1,000 mg KNO3 (12 mgNO3/Kg) at 10:00, time 3:00): 220 µM
- Salivary NO2 (subject 2, 1,000 mg KNO3 (12 mgNO3/Kg) at 10:00, time 4:00): 110 µM
- Salivary NO2 (subject 2, 1,000 mg KNO3 (12 mgNO3/Kg) at 10:00, time 5:45): 20 µM
- Salivary NO2 (subject 2, 1,000 mg KNO3 (12 mgNO3/Kg) at 10:00, time 10:30): 200 µM

Compound: O=C1O[C@H]([C@@H](O)CO)C(O)=C1O [ascorbate]
- nitric oxide bioavailability (salivary nitrite as surrogate marker) (human, in vivo): boosted and extended

Compound: O=[N+]([O-])O [nitrate]
- reduction of systolic blood pressure [1]: 4-11 mmHg
